# Results from ChEMBL document CHEMBL1143763, “Synthesis, in vitro assay, and molecular modeling of new piperidine derivatives having dual inhibitory potency against acetylcholinesterase and Abeta1-42 aggregation for Alzheimer's disease therapeutics” (Bioorg Med Chem, 2007).
# Molecular target: Cholinesterase (Homo sapiens, UniProt P06276)
# Sequence (P06276 whole entry): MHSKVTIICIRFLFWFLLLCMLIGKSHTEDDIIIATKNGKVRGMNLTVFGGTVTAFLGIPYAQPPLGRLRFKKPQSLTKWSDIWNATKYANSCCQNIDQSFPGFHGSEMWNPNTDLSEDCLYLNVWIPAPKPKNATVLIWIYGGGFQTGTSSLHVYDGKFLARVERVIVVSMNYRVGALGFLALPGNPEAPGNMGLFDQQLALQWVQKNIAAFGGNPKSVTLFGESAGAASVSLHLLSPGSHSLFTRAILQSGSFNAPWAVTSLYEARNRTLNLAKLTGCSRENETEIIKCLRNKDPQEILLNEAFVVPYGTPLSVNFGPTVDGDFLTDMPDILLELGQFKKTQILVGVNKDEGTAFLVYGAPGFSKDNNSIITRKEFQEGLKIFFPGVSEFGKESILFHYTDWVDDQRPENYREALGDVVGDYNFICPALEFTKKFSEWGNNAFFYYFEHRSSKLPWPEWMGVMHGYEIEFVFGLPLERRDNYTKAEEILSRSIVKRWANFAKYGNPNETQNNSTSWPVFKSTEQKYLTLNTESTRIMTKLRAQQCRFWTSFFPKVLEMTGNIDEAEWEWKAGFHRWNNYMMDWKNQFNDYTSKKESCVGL
# Description: Inhibition of human BChE by Ellman's method
row,Compound,IC50
1,O=C(OCCCCN1CCC(OCc2ccccc2)CC1)c1ccc([N+](=O)[O-])cc1,5.23 µM
2,CC(C)(C)c1ccc(C(=O)OCCCCN2CCC(OCc3ccccc3)CC2)cc1,15.2 µM
3,CC(C)c1ccc(C(=O)OCCCCN2CCC(OCc3ccccc3)CC2)cc1,10.8 µM
4,O=C(OCCCCN1CCC(OCc2ccccc2)CC1)c1cccc(F)c1,1.58 µM
5,O=C(Nc1ccc(Cl)cc1)OCCCCN1CCC(OCc2ccccc2)CC1,0.25 µM
6,O=C(Nc1ccc(F)cc1)OCCCCN1CCC(OCc2ccccc2)CC1,0.78 µM
7,O=C(OCCCCN1CCC(OCc2ccccc2)CC1)c1ccccc1,1.89 µM
8,O=C(OCCCCN1CCC(OC(c2ccccc2)c2ccccc2)CC1)c1ccccc1,31.5 µM
9,O=C(OCCCCN1CCC(OC(c2ccccc2)c2ccccc2)CC1)c1ccc(Cl)cc1,38.4 µM
10,O=C(OCCCCN1CCC(OC(c2ccccc2)c2ccccc2)CC1)c1ccc(F)cc1,22.2 µM
11,CC(C)(C)c1ccc(C(=O)OCCCCN2CCC(OC(c3ccccc3)c3ccccc3)CC2)cc1,78.9 µM
12,CC(C)c1ccc(C(=O)OCCCCN2CCC(OC(c3ccccc3)c3ccccc3)CC2)cc1,23.2 µM
13,O=C(OCCCCN1CCC(OC(c2ccccc2)c2ccccc2)CC1)c1cccc(Cl)c1,57.9 µM
14,O=C(OCCCCN1CCC(OC(c2ccccc2)c2ccccc2)CC1)c1cccc(F)c1,31.5 µM
15,O=C(OCCCCN1CCC(OCc2ccccc2)CC1)c1ccc(F)cc1,0.56 µM
16,O=C(Nc1ccc(Cl)cc1)OCCCCN1CCC(OC(c2ccccc2)c2ccccc2)CC1,13.7 µM
17,O=C(OCCCCN1CCC(OCc2ccccc2)CC1)c1ccc(Cl)cc1,3.52 µM
18,O=C(OCCCCN1CCC(OCc2ccccc2)CC1)c1cccc(Cl)c1,1.35 µM
19,O=C(OCCCCN1CCC(OC(c2ccccc2)c2ccccc2)CC1)c1ccc([N+](=O)[O-])cc1,26.8 µM
20,O=C(Nc1ccc(F)cc1)OCCCCN1CCC(OC(c2ccccc2)c2ccccc2)CC1,15.7 µM

# Molecular target: Acetylcholinesterase (Electrophorus electricus, UniProt O42275)
# Sequence (O42275 whole entry): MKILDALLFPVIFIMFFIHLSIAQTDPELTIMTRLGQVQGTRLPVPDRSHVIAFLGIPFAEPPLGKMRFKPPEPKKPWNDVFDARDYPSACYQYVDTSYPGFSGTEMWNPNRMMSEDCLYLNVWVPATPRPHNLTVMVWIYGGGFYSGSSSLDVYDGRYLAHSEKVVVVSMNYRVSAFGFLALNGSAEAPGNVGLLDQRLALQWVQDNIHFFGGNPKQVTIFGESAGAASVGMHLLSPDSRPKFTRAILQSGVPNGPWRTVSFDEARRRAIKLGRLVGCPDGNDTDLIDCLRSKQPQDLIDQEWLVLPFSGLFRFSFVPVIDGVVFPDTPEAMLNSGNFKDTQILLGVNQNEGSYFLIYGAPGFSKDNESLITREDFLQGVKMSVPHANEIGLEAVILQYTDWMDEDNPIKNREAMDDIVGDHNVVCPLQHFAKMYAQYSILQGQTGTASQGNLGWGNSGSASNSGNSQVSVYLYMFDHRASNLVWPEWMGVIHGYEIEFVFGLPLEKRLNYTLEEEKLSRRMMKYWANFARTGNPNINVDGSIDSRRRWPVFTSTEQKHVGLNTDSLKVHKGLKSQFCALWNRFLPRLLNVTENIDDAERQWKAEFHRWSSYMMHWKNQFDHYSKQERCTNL
# Description: Inhibition of Electrophorus electricus AChE by Ellman's method
row,Compound,IC50
1,O=C(OCCCCN1CCC(OC(c2ccccc2)c2ccccc2)CC1)c1ccc(Cl)cc1,0.31 µM
2,O=C(OCCCCN1CCC(OC(c2ccccc2)c2ccccc2)CC1)c1cccc(F)c1,7.72 µM
